Reference: paper PMC7558282, “The Anticancer Activity for the Bumetanide-Based Analogs via Targeting the Tumor-Associated Membrane-Bound Human Carbonic Anhydrase-IX Enzyme” (Pharmaceuticals, 2020)
Several values for one entry are separate records, joined by “and”; a condition that tells them apart may be missing. Equal entries are not always repeated.

What was measured:
[1] = target: tumor-associated hCA isoforms; set-up: method as in PMID 18600270, PMID 18374572; settings: cited from earlier work
mitochondrial hCAs = target: mitochondrial hCAs; set-up: method as in PMID 18600270, PMID 18374572; settings: read-out: inhibition for mitochondrial hCAs (moderate); cited from earlier work
cytosolic hCAs = target: cytosolic hCAs; set-up: method as in PMID 18600270, PMID 18374572; settings: read-out: inhibition for cytosolic hCAs (weak); cited from earlier work
hCA-IX [2] = target: T1, hCA-IX (Homo sapiens, UniProt Q16790); set-up: purchased BPS Bioscience 71101; settings: compared with compound 2; no reference given; cited from earlier work
hCA-II = hCA-II (Homo sapiens, UniProt P00918); assay: colorimetric CA-inhibition assay based on CA-esterase activity, hCA-II; settings: hCA-II IC50, three replicate experiments; N/D = non-detected IC50 within the range of the tested concentrations
Method: (§2) Based on the kit manufacturer’s protocol, the candidate inhibitors were dissolved in DMSO at 10 × highest final test concentration and specific aliquots of such working dilutions were incubated with the target hCA isozyme for 10 min at room temperature prior to permit the formation of the enzyme-inhibitor complex. Triplicate experiments were performed for each candidate inhibitor concentration. Parallel wells of solvent and enzyme controls were prepared to test the solvent impact upon the activity of the target enzyme. […] Following incubation, the CA-substrate was added and changes in absorbance (at 405 nm) were monitored for 60 min at room temperature within the kinetic mode. The negative enzyme control wells (without added compounds) were arbitrarily set as 100% enzyme activity. […] Absorbance readings from background wells were subtracted from the compound assay wells in order to account for background hydrolysis activity caused by the buffer solution [44, 45].

hCA-IX [3] = target: T1, hCA-IX; assay: colorimetric CA-inhibition assay based on CA-esterase activity, hCA-IX; settings: for IC50: hCA-IX IC50, three replicate experiments; for Selectivity Ratio II/IX: ratio of IC50 values for isozyme CA-II relative to CA-IX
Method: as §2

[4] = tested on: A-498 kidney carcinoma cells; assay: MTT cell proliferation assay, A-498; assay type: cell-based, human; settings: ±SEM
Method: (§1) Cells were cultured in 96-well plate, at cell density of 1.2–1.8 × 10^4 cells/well, using Dulbecco’s Modified Eagle Medium (Invitrogen^TM, Carlsbad, CA, USA) supplemented with 10% (w/v) fetal bovine serum (Hyclone^TM, Marlborough, MA, USA), 10 ug/mL of insulin (Sigma-Aldrich^TM, St. Louis, MO, USA), and 1% (w/v) penicillin-streptomycin (Sigma-Aldrich^TM, St. Louis, MO, USA). Following 24h-incubation period under 5% CO2 at 37 °C, cells were treated with compounds’ serial concentrations (0.1 µM–100 µM) in DMSO, where the DMSO final concentration in the culture medium never exceeded 0.2% (v/v). Subsequently, the treated microplates were incubated for 48 h at 5% CO2/37 °C prior to examination under the inverted microscope and proceeding for the MTT assay. The culture medium was discarded and 100 µL of complete medium comprising 5 mg/mL MTT dye were dispensed within every well, then plates were reincubated for 2 h at 5% CO2/37 °C. […] Color intensity within each well was measured spectrophotometrically using the ROBONIK-P2000® ELISA microplate reader (Bio-Tek^TM, Winooski, VT, USA) at 450 nm while subtracting the background absorbance of multi well plates at 690 nm. The experiment was conducted in triplicates and IC50 values were estimated through linear regression between the logarithm-transformed compound concentrations and corresponding % cell viability = (mean absorbance in test wells/mean absorbance in control wells) ∗ 100, having the response variable slope (four parameters) for all samples.

[5] = tested on: SCaBER bladder squamous cell carcinoma cells; assay: MTT cell proliferation assay, SCaBER; assay type: cell-based; settings: Homo sapiens, 48 h, ±SEM
Method: as §1

SMILES | IC50 (hCA-II) | IC50 (hCA-IX [3]) | Selectivity Ratio II/IX (hCA-IX [3]) | other results
CCCCNc1cc(C(=O)O)cc(S(N)(=O)=O)c1Oc1ccccc1 [Bumetanide, bumetanide] |  |  |  | Ki on the tumor-associated hCA isoforms [1]: 21.1 to 25.8 nM; Ki (mitochondrial hCAs): 250 to 700 nM; Ki (cytosolic hCAs): 2570 to 6980 nM; hCA-IX inhibition of bumetanide (hCA-IX [2]): ~ 23 nM
CCCCNc1cc(C(=O)OC)cc(S(N)(=O)=O)c1Oc1ccccc1 [Compound 2, bumetanide methyl ester] | 668 nM | 23.7 nM | 28.1 | 
CCCCNc1cc(C(=O)N2N=CCC2=O)cc(S(N)(=O)=O)c1Oc1ccccc1 [Compound 4] | 1050 nM | 16.4 nM | 63.9 | 
CCCCNc1cc(C(=O)n2nc(C)cc2C)cc(S(N)(=O)=O)c1Oc1ccccc1 [Compound 6a] |  | 16.6 nM |  | 
CCCCNc1cc(C(=O)NNC(=S)Nc2ccccc2)cc(S(N)(=O)=O)c1Oc1ccccc1 [Compound 7a] | 1570 nM | 17.7 nM | 88.6 | 
C=CCNC(=S)NNC(=O)c1cc(NCCCC)c(Oc2ccccc2)c(S(N)(=O)=O)c1 [Compound 7b] | 1340 nM | 14.4 nM | 93.4 | 
CCCCNc1cc(C(=O)N/N=c2\scc(-c3ccc(Cl)cc3)n2-c2ccc(Br)cc2)cc(S(N)(=O)=O)c1Oc1ccccc1 [Compound 8g] | 784 nM | > 7 nM and 7.18 nM | 109.2 | 
CCCCNc1cc(C(=O)N/N=c2\scc(-c3ccc(C)cc3)n2-c2ccc(Br)cc2)cc(S(N)(=O)=O)c1Oc1ccccc1 [Compound 8h] | 205 nM and 209 nM | > 7 nM and 14.3 nM | 14.5 | IC50 ([4]; Homo sapiens, A498, 48 h): 6550 ± 260 nM; IC50 [5]: 78040 ± 290 nM
CCCCNc1cc(C(=O)N/N=c2\scc(-c3ccc(OC)cc3)n2-c2ccc(Br)cc2)cc(S(N)(=O)=O)c1Oc1ccccc1 [Compound 8i] | 426 nM | > 7 nM and 10.6 nM | 40.3 | 

More lines, main results first:

IC50 (hCA-II) | IC50 (hCA-IX [3]) | Selectivity Ratio II/IX (hCA-IX [3]) | SMILES | other results
1610 nM | 7.87 nM | 205.1 | CCCCNc1cc(C(=O)NN)cc(S(N)(=O)=O)c1Oc1ccccc1 [Compound 3, bumetanide hydrazide] | 
486 nM | 12.4 nM | 39.0 | CCCCNc1cc(-c2n[nH]c(=S)o2)cc(S(N)(=O)=O)c1Oc1ccccc1 [Compound 5] | 
858 nM | 5.43 nM | 158.9 | CCCCNc1cc(C(=O)n2nc(C)cc2-c2ccccc2)cc(S(N)(=O)=O)c1Oc1ccccc1 [Compound 6b] | 
1540 nM | 12.9 nM | 118.9 | CCCCNc1cc(C(=O)NNC(=S)Nc2ccc(Br)cc2)cc(S(N)(=O)=O)c1Oc1ccccc1 [Compound 7c] | 
251 nM | 6.53 nM | 38.6 | CCCCNc1cc(C(=O)N/N=c2\scc(-c3ccc(Cl)cc3)n2-c2ccccc2)cc(S(N)(=O)=O)c1Oc1ccccc1 [Compound 8a] | IC50 ([4]; 48 h): 15700 ± 630 nM; IC50 ([4]; Homo sapiens, A498, 48 h): 15600 nM; IC50 [5]: 28400 ± 1400 nM
1320 nM | 13 nM | 101.6 | CCCCNc1cc(C(=O)N/N=c2\scc(-c3ccc(C)cc3)n2-c2ccccc2)cc(S(N)(=O)=O)c1Oc1ccccc1 [Compound 8b] | 
474 nM | 12.6 nM | 37.5 | CCCCNc1cc(C(=O)N/N=c2\scc(-c3ccc(OC)cc3)n2-c2ccccc2)cc(S(N)(=O)=O)c1Oc1ccccc1 [Compound 8c] | 
5120 nM | 6.36 nM | 804.6 | C=CCn1c(-c2ccc(Cl)cc2)cs/c1=N\NC(=O)c1cc(NCCCC)c(Oc2ccccc2)c(S(N)(=O)=O)c1 [Compound 8d] | 
518 nM | 11.5 nM | 44.9 | C=CCn1c(-c2ccc(C)cc2)cs/c1=N\NC(=O)c1cc(NCCCC)c(Oc2ccccc2)c(S(N)(=O)=O)c1 [Compound 8e] | 
999 nM | 13.4 nM | 74.5 | C=CCn1c(-c2ccc(OC)cc2)cs/c1=N\NC(=O)c1cc(NCCCC)c(Oc2ccccc2)c(S(N)(=O)=O)c1 [Compound 8f] | 
4060 nM | 5.31 nM | 764.8 | CCCCNc1cc(-c2n[nH]c(=S)n2-c2ccccc2)cc(S(N)(=O)=O)c1Oc1ccccc1 [Compound 9a] | 
205 nM | 7.25 nM | 28.3 | C=CCn1c(-c2cc(NCCCC)c(Oc3ccccc3)c(S(N)(=O)=O)c2)n[nH]c1=S [Compound 9b] | IC50 ([4]; 48 h): 16100 ± 1400 nM; IC50 ([4]; Homo sapiens, A498, 48 h): 16000 nM; IC50 [5]: 78100 ± 1700 nM
